Structures are written as SMILES.

As for `CC(=O)O.N=C(N)c1ccc(CNC(=O)[C@H]2CCCN2C(=O)C(O)C2CCCCC2)cc1` (stereo partly shown) [Example 3, (D)-2-Cyclohexyl-2-hydroxyacetylproline p-amidinobenzylamide Acetate], the melting point (commonly the temperature of the solid-liquid transition) was 216 to 218 °C.

Source of the values: US6900319B2, “Thrombin inhibitors” (Abbott GmbH & Co. KG, priority 1995, dated 2005).
